The values that follow are results of earlier work, collected in patent US20140187513A1, “METHOD OF IMPROVING SKILLS WITH A COMPOSITION COMPRISING NON-DIGESTIBLE SACCHARIDE” (priority 2007, published 2014).

For this data set the following is noted: oral, autistic children, pilot study.

In the case of `CN[C@H](CC(C)C)C(=O)N[C@H]1C(=O)N[C@@H](CC(N)=O)C(=O)N[C@H]2C(=O)N[C@H]3C(=O)N[C@H](C(=O)N[C@H](C(=O)O)c4cc(O)cc(O)c4-c4cc3ccc4O)[C@H](O)c3ccc(c(Cl)c3)Oc3cc2cc(c3O[C@@H]2O[C@H](CO)[C@@H](O)[C@H](O)[C@H]2O[C@H]2C[C@](C)(N)[C@H](O)[C@H](C)O2)Oc2ccc(cc2Cl)[C@H]1O` [vancomycin], the “cognitive effect following vancomycin treatment” value is reported as “significant cognitive improvement”.
